Consider 19 compounds from US20230293517A1, “ANTAGONIST COMPOUNDS” (AdoRx Therapeutics Limited, priority 2020, published 2023).

Each structure is given as a SMILES string.

For test [1], the target named is human Adenosine A1 receptor (Homo sapiens (Human), UniProt P30542). Description: Adenosine receptor TR-FRET binding assay (A1). Conditions: inhibition of binding of 100 nM CA200645, CHO cell membranes. Put shortly:
(§1)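 Terbium-labelled human receptors in CHO cell membranes were incubated 2 h at room temperature with test compounds and fluorescent XAC tracer CA200645 (30 nM for A2b; 100 nM for A1, A2a, A3). TR-FRET 665/620 nm ratio gave specific binding; Ki derived from IC50 by Cheng–Prusoff.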
A general note: TR-FRET usually uses a lanthanide donor and a delayed reading to cut background.

Test [2] deals with human Adenosine A2a receptor (Homo sapiens (Human), UniProt P29274). Description: Adenosine receptor TR-FRET binding assay (A2a). Conditions: inhibition of binding of 100 nM CA200645, CHO cell membranes. Put shortly:
as §1

The subject of test [3] is CD8+T cells in human whole blood. Description: Measurement of pCREB in CD8+T cells in human whole blood. Format: cell-based. Conditions: 3 μM NECA, rolipram. On the procedure:
Biological Example—Measurement of pCREB in CD8+T Cells in Human Whole Blood
Heparinised human whole blood was pre-incubated at 37° C. with serial dilutions of A2a antagonists for 20 min. and the phosphodiesterase inhibitor rolipram to amplify the pCREB response. The adenosine receptor agonist NECA is then added at a final concentration of 3 μM and following a 60 min incubation the blood is fixed and red blood cells lysed. White blood cells are isolated, permeabilized and stained with directly conjugated fluorescent antibodies to phospho-CREB (Alexa Fluor 488) and CD8 (Alexa Fluor 647) and the level of phospho-CREB in CD8+T cells is measured by FACS using a BD Accuri C6 Flow Cytometer.

Test [4] addresses human Adenosine A2b receptor (Homo sapiens (Human), UniProt P29275). The experiment in a line: Adenosine receptor TR-FRET binding assay (A2b). Conditions: TR-FRET, inhibition of binding of 30 nM CA200645, CHO cell membranes. Put shortly:
as §1

Another test deals with human PBMCs. The experiment in a line: CD3/CD28 stimulated IL-2 release NECA reversal assay in human PBMCs. In kind it is cell-based. Conditions: PBMC, 1 uM NECA, 24 hours, IL-2 in culture supernatant. On the procedure: Biological Example—CD3/CD28 Stimulated IL-2 Release NECA Reversal Assay in Human PBMCs
Blood is drawn from healthy volunteers using sodium citrate as the anticoagulant (0.3% final concentration). After centrifugation of the blood over Histopaque-1077, PBMCs are collected from the Histopaque/plasma interface and washed twice in PBS (300 g for 10 mins at room temp). Cells are plated at 50,000 cells/well in 150 μl RPMI/10% FCS in 96-well cell culture plates that have been precoated with 1 ug/ml CD3 antibody. 50 μl diluted compound mix is added to the cells, to obtain final concentrations of 1 ug/ml CD28 antibody, 1 uM NECA and 0.003-10 μM adenosine receptor antagonist. Assay plates are incubated for 24 hours at 37° C. in a humidified incubator. Culture supernatant is tested for IL-2 levels using the human IL-2 Tissue Culture Kit (Meso Scale Discovery). Data for dose-response curves is calculated as % inhibition with 100% inhibition defined from no agonist control wells (+CD3/28-NECA)

Test [5] deals with human Adenosine A3 receptor (Homo sapiens (Human), UniProt P0DMS8). The experiment in a line: Adenosine receptor TR-FRET binding assay (A3). Conditions: inhibition of binding of 100 nM CA200645, CHO cell membranes. Put shortly: as §1
Chain of human Adenosine A3 receptor (P0DMS8 whole entry): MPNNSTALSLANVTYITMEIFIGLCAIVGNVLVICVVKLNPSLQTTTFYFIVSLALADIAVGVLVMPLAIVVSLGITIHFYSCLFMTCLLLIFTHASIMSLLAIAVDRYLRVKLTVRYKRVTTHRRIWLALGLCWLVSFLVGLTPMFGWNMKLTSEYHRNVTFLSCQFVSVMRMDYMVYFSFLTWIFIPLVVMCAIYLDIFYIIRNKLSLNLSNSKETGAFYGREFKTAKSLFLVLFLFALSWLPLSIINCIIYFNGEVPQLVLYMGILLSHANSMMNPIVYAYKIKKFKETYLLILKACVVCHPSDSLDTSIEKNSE

A word on the Ki: it is a measure of affinity in units of concentration, obtained from inhibition or displacement. What is called IC50 is the concentration at which inhibition is half-maximal.

Chain of human Adenosine A1 receptor (P30542 whole entry): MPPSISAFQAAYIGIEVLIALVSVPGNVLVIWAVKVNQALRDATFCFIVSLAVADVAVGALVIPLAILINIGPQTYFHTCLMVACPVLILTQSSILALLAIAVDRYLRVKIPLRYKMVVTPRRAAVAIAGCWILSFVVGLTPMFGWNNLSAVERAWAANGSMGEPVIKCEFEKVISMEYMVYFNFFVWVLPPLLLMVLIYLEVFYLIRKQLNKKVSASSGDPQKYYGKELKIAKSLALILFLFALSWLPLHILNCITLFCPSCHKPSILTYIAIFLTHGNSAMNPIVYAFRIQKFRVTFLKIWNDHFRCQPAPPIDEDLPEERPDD
Chain of human Adenosine A2a receptor (P29274 whole entry): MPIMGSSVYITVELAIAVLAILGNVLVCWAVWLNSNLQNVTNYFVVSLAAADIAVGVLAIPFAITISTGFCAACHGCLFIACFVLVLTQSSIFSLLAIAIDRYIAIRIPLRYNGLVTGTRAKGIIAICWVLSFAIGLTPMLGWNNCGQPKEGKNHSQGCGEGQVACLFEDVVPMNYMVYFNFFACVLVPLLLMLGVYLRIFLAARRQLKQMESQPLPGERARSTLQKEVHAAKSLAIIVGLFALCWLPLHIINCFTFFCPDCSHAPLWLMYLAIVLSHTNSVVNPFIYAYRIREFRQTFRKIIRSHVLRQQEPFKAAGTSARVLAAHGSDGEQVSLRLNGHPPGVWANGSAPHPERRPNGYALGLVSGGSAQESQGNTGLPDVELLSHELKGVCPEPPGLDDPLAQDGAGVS
Chain of human Adenosine A2b receptor (P29275 whole entry): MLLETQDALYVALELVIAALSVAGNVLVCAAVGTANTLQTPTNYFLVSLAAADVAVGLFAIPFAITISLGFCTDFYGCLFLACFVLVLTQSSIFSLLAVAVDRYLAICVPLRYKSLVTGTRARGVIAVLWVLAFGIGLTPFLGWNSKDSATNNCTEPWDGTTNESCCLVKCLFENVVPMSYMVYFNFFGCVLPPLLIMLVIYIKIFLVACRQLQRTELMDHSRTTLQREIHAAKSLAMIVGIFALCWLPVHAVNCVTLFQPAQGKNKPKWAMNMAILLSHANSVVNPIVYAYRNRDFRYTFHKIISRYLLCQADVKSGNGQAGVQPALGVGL

In the case of `Cc1cc(-c2sc(NC(=O)N3CC4(COC4)C3)nc2-c2cccc(C#N)c2)cc([C@@H](C)O)n1` (single isomer, unassigned) [Example 12.3b, N-[4-(3-Cyanophenyl)-5-[2-[(1R)-1-hydroxyethyl]-6-methyl-4-pyridyl]thiazol-2-yl]-2-oxa-6-azaspiro[3.3]heptane-6-carboxamide or N-[4-(3-cyanophenyl)-5-[2-[(1S)-1-hydroxyethyl]-6-methyl-4-pyridyl]thiazol-2-yl]-2-oxa-6-azaspiro[3.3]heptane-6-carboxamide], the Ki in test [1] came out at 19 nM; in test [2], 0.42 nM; in test [4] it was 1.2 nM. Also, in test [3], the IC50 came to 10 nM.

In the case of `Cc1cc(-c2sc(NC(=O)N3CCC4(CC3)CNC(=O)N4C)nc2-c2cccc(C#N)c2)cc(C)n1` [Example 6.51, N-[4-(3-Cyanophenyl)-5-(2,6-dimethyl-4-pyridyl)thiazol-2-yl]-1-methyl-2-oxo-1,3,8-triazaspiro[4.5]decane-8-carboxamide], the half-maximal inhibitory concentration (IC50) in the test on human PBMCs worked out at 6.1 nM; in test [3] it was 320 nM.

As to `Cc1cc(-c2sc(NC(=O)N3CC4(CCOCC4)C3)nc2-c2cccc(C#N)c2)cc(C)n1` [Example 6.54, N-[4-(3-Cyanophenyl)-5-(2,6-dimethyl-4-pyridyl)thiazol-2-yl]-7-oxa-2-azaspiro[3.5]nonane-2-carboxamide], the IC50 in the test on human PBMCs worked out at 3.3 nM; in test [3], 140 nM.

With `Cc1cc(-c2sc(NC(=O)N3CC4(CNC(=O)C4)C3)nc2-c2cccc(C#N)c2)cc(C)n1` [Example 6.55, N-[4-(3-Cyanophenyl)-5-(2,6-dimethyl-4-pyridyl)thiazol-2-yl]-6-oxo-2,7-diazaspiro[3.4]octane-2-carboxamide], the half-maximal inhibitory concentration (IC50) is 2.2 nM with human PBMCs and 10 nM in test [3].

Take `Cc1cc(-c2sc(NC(=O)N3CC4(CNC(=O)N4)C3)nc2-c2cccc(C#N)c2)cc(C)n1` [Example 6.57, N-[4-(3-Cyanophenyl)-5-(2,6-dimethyl-4-pyridyl)thiazol-2-yl]-6-oxo-2,5,7-triazaspiro[3.4]octane-2-carboxamide]: the 50% inhibitory concentration (IC50) with human PBMCs stood at 2.6 nM; in test [3] it was 60 nM.

On to `Cc1cc(-c2sc(NC(=O)N3CCC4(CCCC(=O)N4)CC3)nc2-c2cccc(C#N)c2)cc(C)n1` [Example 6.58, N-[4-(3-Cyanophenyl)-5-(2,6-dimethyl-4-pyridyl)thiazol-2-yl]-2-oxo-1,9-diazaspiro[5.5]undecane-9-carboxamide], for which the figures for the IC50 (in the test with human PBMCs; in test [3]) were 8.5 nM and 360 nM, respectively.

In the case of `Cc1cc(-c2sc(NC(=O)N3CCC(C)(C#N)CC3)nc2-c2cccc(C#N)c2)c(F)c(C)n1` [Example 6.66, 4-Cyano-N-[4-(3-cyanophenyl)-5-(3-fluoro-2,6-dimethyl-4-pyridyl)thiazol-2-yl]-4-methyl-piperidine-1-carboxamide], the half-inhibitory concentration (IC50) with human PBMCs is 4.3 nM; in test [3], 300 nM.

Turning to `Cc1cc(-c2sc(NC(=O)N3CC(C)(O)C3)nc2-c2cccc(C#N)c2)c(F)c(C)n1` [Example 6.67, N-[4-(3-Cyanophenyl)-5-(3-fluoro-2,6-dimethyl-4-pyridyl)thiazol-2-yl]-3-hydroxy-3-methyl-azetidine-1-carboxamide], the 50% inhibitory concentration (IC50) amounted to 10.6 nM in the test on human PBMCs and 250 nM in test [3].

For `Cc1cc(-c2sc(NC(=O)N3CCC(C)(O)CC3)nc2-c2cccc(C#N)c2)cc(C)n1` [Example 6.96, N-[4-(3-Cyanophenyl)-5-(2,6-dimethyl-4-pyridyl)thiazol-2-yl]-4-hydroxy-4-methyl-piperidine-1-carboxamide], the Ki came to 10 nM in test [1], 502 nM in test [5], 0.53 nM in test [2] and 1.8 nM in test [4]. This compound also gave a half-maximal inhibitory concentration (IC50) in test [3] of 30 nM.

For the compound `Cc1cc(-c2sc(NC(=O)N3CCN[C@@H](C(F)(F)F)C3)nc2-c2cccc(C#N)c2)cc(C)n1` [Example 13.13, (3R)-N-[4-(3-Cyanophenyl)-5-(2,6-dimethyl-4-pyridyl)thiazol-2-yl]-3-(trifluoromethyl)piperazine-1-carboxamide], the inhibition constant Ki in test [1] turned out to be 19 nM; in test [5], 871 nM; in test [2], 0.48 nM; in test [4], 8 nM. This compound also returned a 50% inhibitory concentration (IC50) in test [3] of 110 nM.

Take `COc1cc(-c2sc(NC(=O)N3CCS(=N)(=O)CC3)nc2-c2cccc(C#N)c2)cc(C)n1` [Example 16, N-[4-(3-Cyanophenyl)-5-(2-methoxy-6-methyl-4-pyridyl)thiazol-2-yl]-1-imino-1-oxo-1,4-thiazinane-4-carboxamide]: the Ki in test [1] was found to be 55 nM; in test [5], 334 nM; in test [2] it was 2.71 nM; in test [4], 2.4 nM.

Regarding `Cc1cc(-c2sc(NC(=O)N3CC[S+]([O-])CC3)nc2-c2cccc(C#N)c2)cc(C(F)(F)F)n1` [Example 16.2], the inhibition constant (Ki) in test [1] was found to be 16 nM; in test [5], 135 nM; in test [2] it was 0.38 nM; in test [4] it was 1.4 nM.

In the case of `COc1cc(-c2sc(NC(=O)N3CC[S+]([O-])CC3)nc2-c2cccc(C#N)c2)cc(C)n1` [Example 16.3], the inhibitory constant (Ki) worked out at 82 nM in test [1], 383 nM in test [5], 5.71 nM in test [2] and 6.2 nM in test [4].

Turning to `Cc1cc(-c2sc(NC(=O)N3CC[S+]([O-])CC3)nc2-c2cccc(C#N)c2)cc(C#N)n1` [Example 16.5], the inhibition constant Ki in test [1] amounted to 87 nM; in test [5], 325 nM; in test [2], 11.9 nM; in test [4] it was 19.9 nM.

For the compound `Cc1cc(-c2sc(NC(=O)N3CC4(COC4)C3)nc2-c2cccc(C#N)c2)cc(C(C)C)n1` [Example 16.8], the Ki came out at 6 nM in test [1], 537 nM in test [5], 0.13 nM in test [2] and 1.1 nM in test [4].

In the case of `N#Cc1cccc(-c2nc(NC(=O)N3CC4(COC4)C3)sc2-c2cc(Cl)nc(Cl)c2)c1` [Example 16.10], the inhibition constant Ki in test [1] came out at 43 nM; in test [5], 254 nM; in test [2], 0.57 nM; in test [4], 1.7 nM.

On to `CC(=O)Nc1cc(-c2sc(NC(=O)N3CC4(COC4)C3)nc2-c2cccc(C#N)c2)cc(C)n1` [Example 19, N-[5-(2-Acetamido-6-methyl-4-pyridyl)-4-(3-cyanophenyl)thiazol-2-yl]-2-oxa-6-azaspiro[3.3]heptane-6-carboxamide], for which the inhibitory constant (Ki) in test [1] was 137 nM; in test [2], 1.86 nM; in test [4], 7.9 nM. Further, the half-inhibitory concentration (IC50) in test [3] was 290 nM.

For `CC(=O)NCc1cc(-c2sc(NC(=O)N3CC4(COC4)C3)nc2-c2cccc(C#N)c2)cc(C)n1` [Example 20, N-[5-[2-(Acetamidomethyl)-6-methyl-4-pyridyl]-4-(3-cyanophenyl)thiazol-2-yl]-2-oxa-6-azaspiro[3.3]heptane-6-carboxamide], the Ki in test [1] amounted to 133 nM; in test [5], 2540 nM; in test [2] it was 6.85 nM; in test [4] it was 39.1 nM.

Regarding `COC(C)c1cc(-c2sc(NC(=O)N3CC4(COC4)C3)nc2-c2cccc(C#N)c2)cc(C)n1` (stereo not shown) [Example 22, N-[4-(3-Cyanophenyl)-5-[2-(1-methoxyethyl)-6-methyl-4-pyridyl]thiazol-2-yl]-2-oxa-6-azaspiro[3.3]heptane-6-carboxamide], the Ki turned out to be 7 nM in test [1], 2060 nM in test [5], 0.2 nM in test [2] and 3.2 nM in test [4].
